Values joined by “and” are separate entries in the source; they are usually repeats but may differ in a detail not shown here. Equal entries are not always repeated. Where two headings read alike, the source gives them in different places.
Columns and labels:
[1] = tested on: HepaRG™ cells
Text: Cryopreserved HepaRG™ (HPRGC10), a terminally differentiated hepatic cell line, was purchased from ThermoFisher Scientific (Waltham, MA). HepaRG™ was thawed and cultured according to manufacturer's instructions. Briefly, the general purpose working medium was WEM supplemented with 1X GlutaMAX™ and 1X HepaRG™ Thaw, Plate, & General Purpose Medium Supplement. The metabolism working medium was WEM supplemented with 1X GlutaMAX™ and HepaRG™ Maintenance/Metabolism Medium Supplement. HepaRG™ cells were thawed in the general purpose working medium and plated in a 96-well plate coated with collagen I at 100 000 cells/well. One day after plating, the general purpose working medium was changed to the metabolism working medium. The metabolism working medium was renewed on day 4 and day 6 after plating. On day 7, the cells were treated in the metabolism working medium.
(§1) To load cells into microwells, ∼2000–200 000 cells in suspension were placed into each macrowell, and the chip was incubated at 37°C in the presence of 5% CO2 for 15 min. Cell were loaded into microwells by gravity, and excess cells were then washed off with PBS by shear force. The chip was covered with a layer of overlay agarose (1% w/v low-melting point agarose solution in PBS, kept molten at 43°C until use). For complete gelation of the overlay agarose, the chip was kept at room temperature for two minutes followed by 2 min at 4°C.
(§2) The alkaline comet assay was performed as previously ([15],[79]). Sodium chloride (NaCl, 7581), disodium EDTA (Na2EDTA, 4931), and sodium hydroxide pellets (NaOH, 7708) were purchased from VWR, Radnor, PA. Trizma® base (T1503), Trizma® HCl (T5941) and Triton X-100 (X-100) were obtained from MilliporeSigma, St. Louis, MO. 10 000× SYBR™ Gold nucleic acid gel stain was obtained from ThermoFisher Scientific, Waltham, MA.
(§3) The alkaline lysis buffer (pH ∼ 10) was a solution of 2.5 M NaCl, 100 mM Na2EDTA, 10 mM Trizma® base, and 1% (v/v) Triton X-100 dissolved in deionized H2O (dI H2O). […] The neutralization buffer (pH ∼ 7.5) was prepared by dissolving Trizma® HCl in distilled H2O to a final concentration of 0.4 M.
(§4) Cells encapsulated in CometChip were lysed in the alkaline lysis buffer overnight at 4°C. The nuclei were unwound in the alkaline unwinding buffer for 40 min at 4°C, and the DNA was electrophoresed in the same buffer at the same temperature for 30 min at 1 V/cm and ∼300 mA. The CometChip was then washed three times in neutralization buffer by submerging for 5 min each time.
(§5) The DNA on CometChip was stained for 15 min at room temperature with 1× of SYBR™ Gold diluted in PBS, protected from light. Fluorescent images of the comets were captured at 40× magnification using an epifluorescence microscope (Nikon Eclipse 80i, Nikon Instruments, Inc., Melville, NY, USA) with a 480 nm excitation filter. Image acquisition was achieved by automatic scanning using a motorized XY stage. Comet images were automatically analyzed using Guicometanalyzer, a custom software developed in MATLAB (The MathWorks Inc., Natick, MA, USA) as previously described ([15]). For each condition, 100 comets or more were analysed. Outputs from Guicometanalyzer were processed and imported to a spreadsheet (Microsoft Excel, Microsoft Office Suite 2016) using Comet2Excel, an in-house software developed in Python (Python Software Foundation, Python version 2.7.10). Software is freely available upon request.
For this experiment, the comets were analysed using Trevigen® Comet Analysis Software.
(§6) A vehicle control condition was included by diluting DMSO in cell culture medium to get a final concentration of 0.5%. Cells were incubated with the test compound for 24 h at 37°C in the presence of 5% CO2.
HepaRG™ were incubated with the test compound for 24 h at 37°C in the presence of 5% CO2. A vehicle control (1% DMSO) was included.

[2] = tested on: HepaRG™ cells; assay type: cell-based, human
Experimental: The CTG® luminescent cell viability assay kit (G7570) was obtained from Promega, Madison, WI. Cell viability after 24 h of chemical treatment was measured according to the manufacturer's instructions. Luminescent signals were recorded using a SpectraMax M2e microplate reader (Molecular Devices, Sunnyvale, CA, USA) at room temperature. The emission bracket was from 360 to 750 nm. Control wells with no cells were included to obtain background luminescence, which was then subtracted from the signal measured in the sample wells.

[3] = cited from earlier work
[4] = tested on: HepG2 cells
Experimental: HepG2 (ATCC® HB-8065™), an immortalized cell line derived from human hepatocellular carcinoma, was obtained from the American Type Culture Collection (Manassas, VA). HepG2 cells were cultured in high-glucose DMEM supplemented with 10% FBS, 1× GlutaMAX™, and 100 U/ml Pen-Strep. For chemical exposures, exponentially growing cells were plated in a tissue cultured treated 96-well plate two days before treatment.
as §1, §2, §3, §4, §5, §6
HepG2 were incubated with the test compound for 24 h at 37°C in the presence of 5% CO2. A vehicle control (0.07% sodium bicarbonate) was included.
Cells embedded in CometChip were placed on ice and irradiated with 0, 0.9, 1.8, 3.6, 5.4, 7.2 and 9 Gy of gamma rays from a Cs 137 radiation source with a dose rate of 0.9 Gy/min. The irradiated cells were submerged into lysis buffer overnight and the alkaline CometChip assay performed as described above.

[5] = tested on: TK6 cells
[6] = 1 mM HU and 10 μM AraC, 24 h, doses with statistically significant result
[7] = 1 mM HU and 10 μM AraC, 24 h exposure

With `O=P1(N(CCCl)CCCl)NCCCO1` (stereo not shown) [CP, Cyclophosphamide monohydrate] the “DNA damage score” value [1] was “positives”, the “Genotoxicity Alkaline CometChip HepaRG (+ HU + AraC) +/−” value [1] was “+” and the “Genotoxicity Alkaline CometChip HepaRG +/−” value [1] was “−”. The “Alkaline CometChip HepaRG (+ HU + AraC) ‘+’ dose range” value ([1]; human) was 5 to 10 mM.
For `O=C(N[C@H](CO)[C@H](O)c1ccc([N+](=O)[O-])cc1)C(Cl)Cl` [CAM, Chloramphenicol], the “Alkaline CometChip HepaRG (+ HU + AraC) ‘+’ dose range” value [1, 6] was 3.1 mM and the “Cytotoxicity” value ([2]; HepaRG, 24 h, CTG) was “high levels of cytotoxicity”.
With `Cc1ccc(N)cc1N` [2,4-DAT, 2,4-Diaminotoluene] the “Alkaline CometChip HepaRG (+ HU + AraC) ‘+’ dose range” value [1, 6] was 10 mM, the “Genotoxicity Alkaline CometChip HepaRG (+ HU + AraC) +/−” value [1, 7] was “+” and the “Genotoxicity Alkaline CometChip HepaRG +/−” value ([1]; without HU/AraC, 24 h exposure) was “−”. The “Carcinogenicity IARC classification” value [3] was “Group 2B”.
In the case of `C[C@H]1[C@H](OC(=O)CCC(=O)O)O[C@@H]2O[C@@]3(C)CC[C@H]4[C@H](C)CC[C@@H]1[C@@]24OO3` [artesunate, Artesunate], the “DNA damaging potential” value ([4]; HepG2, 24 h, absence vs presence of 1 mM HU and 10 μM AraC) is reported as “HU/AraC reveals a wider range of genotoxic artesunate doses”.
For Aflatoxin B1 [AFB1], the “SSBs, dose-response” value [1] was “strong dose-response relationship”, the “Average % Tail DNA” value [4] was 21.9% and 33.4% and the “SSBs, dose-response” value [4] was “relatively small increase in SSBs”. For the same compound, the “SSBs, response” value [5] was “no response”.
In the case of `OO` [H2O2], the “Comets on alkaline CometChip (comet tails)” value ([5]; TK6 cells, 50 μM H2O2) is reported as “visibly large tails”.
For `CN(C)N=O` [NDMA, N-Nitrosodimethylamine], the “Alkaline CometChip HepaRG (+ HU + AraC) ‘+’ dose range” value [1, 6] was 2.5 to 20 mM, the “Genotoxicity Alkaline CometChip HepaRG (+ HU + AraC) +/−” value [1, 7] was “+” and the “DNA damage score” value ([1]; HepaRG, in the absence of HU/AraC, 24 h) was “positive result”. The “Alkaline CometChip HepaRG ‘+’ dose range” value ([1]; without HU/AraC, 24 h, doses with statistically significant result) was 2.5 to 20 mM, the “Genotoxicity Alkaline CometChip HepaRG +/−” value ([1]; without HU/AraC, 24 h exposure) was “+” and the “Carcinogenicity IARC classification” value [3] was “Group 2A”.
For `Nc1ccc(Cl)cc1` [PCA, p-Chloroaniline], the “DNA damage score” value ([1]; HepaRG, using HU/AraC, 24 h) is listed as “negative results”, the Cell death ([2]; HepaRG, highest dose (5 mM), 24 h) is listed as ~50% and the “Carcinogenicity IARC classification” value [3] is listed as “Group 2B”.
With `COc1cc([C@@H]2c3cc4c(cc3[C@@H](O[C@@H]3O[C@@H]5CO[C@@H](C)O[C@H]5[C@H](O)[C@H]3O)[C@H]3COC(=O)[C@H]23)OCO4)cc(OC)c1O` [Etoposide] the “Genotoxicity Alkaline CometChip HepaRG (+ HU + AraC) +/−” value [1] was “+” and the “Genotoxicity Alkaline CometChip HepaRG +/−” value [1] was “−”.
In the case of `CC(=O)N1CCN(c2ccc(OCC3COC(Cn4ccnc4)(c4ccc(Cl)cc4Cl)O3)cc2)CC1` (stereo not shown) [KET, Ketoconazole], the “DNA damage by inhibitor alone” value [1] is reported as “does not induce DNA damage”, the “Level of AFB1-induced SSBs in the presence of KET” value [1] is reported as “reduced to near background levels” and the “DNA damage by inhibitor alone” value [4] is reported as “does not induce DNA damage”. For the same compound, the “DNA damage by inhibitor alone” value [5] was “does not induce DNA damage”.
For `N.N.[Cl][Pt][Cl]` [Cisplatin, cis-Diamineplatinum(II) dichloride], the “DNA damage score” value ([1]; HepaRG, using HU/AraC, 24 h) is listed as “negative results” and the “Carcinogenicity IARC classification” value [3] is listed as “Group 2A”.
In the case of `Oc1ccc(O)cc1` [HQ, Hydroquinone], the “Genotoxicity Alkaline CometChip HepaRG (+ HU + AraC) +/−” value [1] is reported as “+”, the “Genotoxicity Alkaline CometChip HepaRG +/−” value [1] is reported as “−” and the “Alkaline CometChip HepaRG (+ HU + AraC) ‘+’ dose range” value ([1]; human) is reported as 0.33 mM. The “Cytotoxicity” value [2] was “high levels of cytotoxicity”.

Source: paper PMC7026589, “Sensitive CometChip assay for screening potentially carcinogenic DNA adducts by trapping DNA repair intermediates” (Nucleic Acids Research, 2019)
